Source: patent publication US20250188082A1, “Use of Hypoxanthine Compound In Preparation of Drug For Treating Pulmonary Fibrosis” (Sichuan Yiasuo Pharmaceutical Technology Co., Ltd., priority 2022, published 2025)

Columns and labels:
Assay type in all cases: in vivo, C57BL/6 mice
[1] = system: coronavirus-induced pulmonary fibrosis model (HcoV-OC43); experiment: Coronavirus-induced pulmonary fibrosis model; details: 120 mg/kg/d intragastric, 14 days; for Ashcroft scores: coronavirus HcoV-OC43 + bleomycin, lung tissue HE; for IL-1β / IL-6 / NF-κB / TNF-α: serum, HcoV-OC43 + bleomycin, from two weeks after model
Description: Experimental method: an in-vivo coronavirus-induced pulmonary fibrosis model mice was established: C57BL/6 mice (with weights being 22-25 g) were randomly and evenly divided into a plurality of groups, including blank control group, model group, Nintedanib positive control group, hypoxanthine analogue A group, hypoxanthine analogue B group, hypoxanthine analogue C group, compound 1 group, compound 2 group . . . compound 12 group, with 9 mice in each group. On Day 1, the mice in the blank control group were instilled with normal saline nasally, and the mice in other groups were all infected with HcoV-OC43 coronavirus strains (30 μL) through nasal instillation. On Day 2, the mice received 5 mg/kg bleomycin through tracheas to induce their pulmonary fibrosis. After the model was established for two weeks, the mice in each group were intragastrically administrated for intervention for consecutive 14 days; the mice in blank control group and model group intragastrically received the same dosage of the normal saline as those in drug groups; the mice in Nintedanib positive control group received Nintedanib (120 mg/kg); the mice in hypoxanthine analogue A group, hypoxanthine analogue B group and hypoxanthine analogue C group respectively received hypoxanthine analogue A (120 mg/kg/d), hypoxanthine analogue B (120 mg/kg/d) and hypoxanthine analogue C (120 mg/kg/d); and the mice in compound 1 group, compound 2 group . . . compound 12 group respectively received compound 1 (120 mg/kg/d), compound 2 (120 mg/kg/d) . . . compound 12 (120 mg/kg/d) prepared in example 1. After administration for consecutive 14 days, the mice were observed every day, and their weights and death conditions were recorded. After administration, blood was taken from eyeballs for immediately detecting the expression levels of NF-κB, TNF-α, IL-1 and IL-6 in serum, and lung tissues were taken for HE detection and Ashcroft scoring.

[2] = system: mycoplasma-induced pulmonary fibrosis model (MPFH strain); experiment: Mycoplasma-induced pulmonary fibrosis model; details: 120 mg/kg/d intragastric, 14 days; for Leucocyte / Lymphocyte / Neutrophil: MPFH mycoplasma + bleomycin, once a day, from two weeks after model; for Ashcroft scores: mycoplasma + bleomycin, lung tissue HE
Description: Experimental method: an in-vivo mycoplasma-induced pulmonary fibrosis model was established: C57BL/6 mice (with weights being 22-25 g) were randomly and evenly divided into a plurality of groups, including blank control group, model group, Nintedanib positive control group, hypoxanthine analogue A group, hypoxanthine analogue B group, hypoxanthine analogue C group, compound 1 group, compound 2 group . . . compound 12 group, with 9 mice in each group. Before a model was established, the mice were anesthetized with diethyl ether. In addition to that the mice in blank control group with instilled with 100 μL of normal saline nasally, the mice in other groups with slowly instilled with an equal volume of a MPFH strain solution (containing 1×10^7 mL^−1 MPFH strain) to the nasal cavity, for consecutive 3 days, and inhaled the MPFH strain solution into bronchi. After instillation with mycoplasmas through tracheas, the mice received 5 mg/kg bleomycin through tracheas to induce their pulmonary fibrosis. After the model was established for two weeks, the mice in each group were intragastrically administrated for intervention for consecutive 14 days; the mice in blank control group and model group intragastrically received an equal dosage of normal saline as those in drug groups; the mice in Nintedanib positive control group received Nintedanib (120 mg/kg); the mice in hypoxanthine analogue A group, hypoxanthine analogue B group and hypoxanthine analogue C group respectively received hypoxanthine analogue A (120 mg/kg/d), hypoxanthine analogue B (120 mg/kg/d) and hypoxanthine analogue C (120 mg/kg/d); and the mice in compound 1 group, compound 2 group . . . compound 12 group respectively received compound 1 (120 mg/kg/d), compound 2 (120 mg/kg/d) . . . compound 12 (120 mg/kg/d) prepared in example 1. The mice were administrated once a day to be treated for consecutive 14 days. The mice were observed every day, and their weights and death conditions were recorded. On the last day of administration, the mice were sacrificed; and blood was taken from eyeballs and kept at −80° C. for detecting blood routine indexes. Meanwhile, lungs were lavaged with normal saline and separated to collect lavage fluids for detecting counts and classes of leucocytes; and lung tissues were taken for HE straining and Ashcroft scoring on the extent of pulmonary fibrosis.

[3] = system: bleomycin-induced pulmonary fibrosis model; experiment: Advanced pulmonary fibrosis: bleomycin-induced model, dosing from three weeks after modelling; details: for Leucocyte / Lymphocyte / Neutrophil / Ashcroft scores: advanced pulmonary fibrosis, 120 mg/kg/d intragastric, 14 days, from three weeks after model; for Leucocyte / Lymphocyte / Neutrophil: blood, Day 15, twice every day; for Ashcroft scores: lung tissue HE staining; for inhibition (anti-inflammatory) effect on leucocytes, neutrophils and lymphocytes in blood: mice with advanced pulmonary fibrosis, result in words

CC(C)Oc1ncnc2[nH]cnc12 [Compound 1]
Ashcroft scores [1]: 1.18 | IL-1β [1]: 31.8 pg/mL | IL-6 [1]: 62.7 pg/mL | NF-κB [1]: 23.9 pg/mL | TNF-α [1]: 51.8 pg/mL | Leucocyte [2]: 7.01 10^9/L | Lymphocyte [2]: 72.56 10^9/L | Neutrophil [2]: 21.01 10^9/L | Ashcroft scores [2]: 1.12 | Leucocyte [3]: 4.28 10^9/L | Lymphocyte [3]: 5.33 10^9/L | Neutrophil [3]: 1.37 10^9/L | Ashcroft scores [3]: 0.95

CC(C)n1cnc2nc[nH]c(=O)c21 [Compound 6]
Ashcroft scores [1]: 1.30 | IL-1β [1]: 39.5 pg/mL | IL-6 [1]: 65.7 pg/mL | NF-κB [1]: 29.3 pg/mL | TNF-α [1]: 56.2 pg/mL | Leucocyte [2]: 6.05 10^9/L | Lymphocyte [2]: 71.57 10^9/L | Neutrophil [2]: 22.72 10^9/L | Ashcroft scores [2]: 1.17 | Leucocyte [3]: 4.58 10^9/L | Lymphocyte [3]: 5.94 10^9/L | Neutrophil [3]: 1.59 10^9/L | Ashcroft scores [3]: 1.19

CC(C)Oc1ncnc2c1ncn2C(C)C [Compound 3]
Ashcroft scores [1]: 1.03 | IL-1β [1]: 31.3 pg/mL | IL-6 [1]: 61.7 pg/mL | NF-κB [1]: 23.7 pg/mL | TNF-α [1]: 49.9 pg/mL | Leucocyte [2]: 6.83 10^9/L | Lymphocyte [2]: 72.33 10^9/L | Neutrophil [2]: 22.12 10^9/L | Ashcroft scores [2]: 0.96 | Leucocyte [3]: 3.98 10^9/L | Lymphocyte [3]: 5.18 10^9/L | Neutrophil [3]: 1.19 10^9/L | Ashcroft scores [3]: 0.87

CC(C)Oc1ncnc2nc[nH]c12 [Compound 5]
Ashcroft scores [1]: 1.31 | IL-1β [1]: 37.1 pg/mL | IL-6 [1]: 64.9 pg/mL | NF-κB [1]: 25.9 pg/mL | TNF-α [1]: 52.6 pg/mL | Leucocyte [2]: 6.86 10^9/L | Lymphocyte [2]: 74.39 10^9/L | Neutrophil [2]: 21.91 10^9/L | Ashcroft scores [2]: 1.23 | Leucocyte [3]: 4.34 10^9/L | Lymphocyte [3]: 5.74 10^9/L | Neutrophil [3]: 1.36 10^9/L | Ashcroft scores [3]: 1.22

CC(C)Oc1ncnc2c1ncn2C [Hypoxanthine analogue B, reference compound]
Ashcroft scores [1]: 6.12 | IL-1β [1]: 560.6 pg/mL | IL-6 [1]: 522.2 pg/mL | NF-κB [1]: 730.1 pg/mL | TNF-α [1]: 454.4 pg/mL | Leucocyte [2]: 118.58 10^9/L | Lymphocyte [2]: 568.05 10^9/L | Neutrophil [2]: 233.92 10^9/L | Ashcroft scores [2]: 6.30 | Leucocyte [3]: 71.35 10^9/L | Lymphocyte [3]: 67.37 10^9/L | Neutrophil [3]: 68.34 10^9/L | Ashcroft scores [3]: 6.01 | inhibition (anti-inflammatory) effect on leucocytes, neutrophils and lymphocytes in blood [3]: obviously inferior

COc1ncnc2c1ncn2C(C)C [Hypoxanthine analogue C, reference compound]
Ashcroft scores ([1]; 120 mg/kg/day): 6.31 | IL-1β ([1]; 120 mg/kg/day): 530.1 pg/mL | IL-6 ([1]; 120 mg/kg/day): 530.9 pg/mL | NF-κB ([1]; 120 mg/kg/day): 729.6 pg/mL | TNF-α ([1]; 120 mg/kg/day): 449.1 pg/mL | Leucocyte ([2]; 120 mg/kg/day): 120.98 10^9/L | Lymphocyte ([2]; 120 mg/kg/day): 571.34 10^9/L | Neutrophil ([2]; 120 mg/kg/day): 238.07 10^9/L | Ashcroft scores ([2]; 120 mg/kg/day): 6.41 | Leucocyte ([3]; 120 mg/kg/day): 72.55 10^9/L | Lymphocyte ([3]; 120 mg/kg/day): 70.88 10^9/L | Neutrophil ([3]; 120 mg/kg/day): 59.66 10^9/L | Ashcroft scores ([3]; 120 mg/kg/day): 6.06 | inhibition (anti-inflammatory) effect on leucocytes, neutrophils and lymphocytes in blood [3]: obviously inferior

CC(C)Oc1ncnc2ncn(C(C)C)c12 [Compound 4]
Ashcroft scores [1]: 1.39 | IL-1β [1]: 35.5 pg/mL | IL-6 [1]: 63.9 pg/mL | NF-κB [1]: 26.7 pg/mL | TNF-α [1]: 52.9 pg/mL | Leucocyte [2]: 6.79 10^9/L | Lymphocyte [2]: 73.37 10^9/L | Neutrophil [2]: 22.54 10^9/L | Ashcroft scores [2]: 1.05 | Leucocyte [3]: 4.26 10^9/L | Lymphocyte [3]: 5.63 10^9/L | Neutrophil [3]: 1.34 10^9/L | Ashcroft scores [3]: 1.24

CC(=O)Oc1ncnc2c1ncn2C(C)C [Compound 11]
Ashcroft scores [1]: 1.29 | IL-1β [1]: 35.4 pg/mL | IL-6 [1]: 63.3 pg/mL | NF-κB [1]: 25.1 pg/mL | TNF-α [1]: 52.1 pg/mL | Leucocyte [2]: 6.70 10^9/L | Lymphocyte [2]: 73.25 10^9/L | Neutrophil [2]: 22.47 10^9/L | Ashcroft scores [2]: 1.50 | Leucocyte [3]: 4.22 10^9/L | Lymphocyte [3]: 5.57 10^9/L | Neutrophil [3]: 1.39 10^9/L | Ashcroft scores [3]: 1.07

COc1ncnc2c1ncn2C(C)C [Compound 7]
Ashcroft scores [1]: 1.49 | IL-1β [1]: 33.2 pg/mL | IL-6 [1]: 64.3 pg/mL | NF-κB [1]: 25.6 pg/mL | TNF-α [1]: 55.9 pg/mL | Leucocyte [2]: 7.15 10^9/L | Lymphocyte [2]: 73.29 10^9/L | Neutrophil [2]: 21.45 10^9/L | Ashcroft scores [2]: 1.25 | Leucocyte ([3]; 120 mg/kg/day): 4.61 10^9/L | Lymphocyte ([3]; 120 mg/kg/day): 5.65 10^9/L | Neutrophil ([3]; 120 mg/kg/day): 1.44 10^9/L | Ashcroft scores ([3]; 120 mg/kg/day): 1.13

COC(=O)c1ccc2c(c1)NC(=O)/C2=C(\Nc1ccc(N(C)C(=O)CN2CCN(C)CC2)cc1)c1ccccc1 [Nintedanib, reference compound]
Ashcroft scores [1]: 4.11 | IL-1β [1]: 525.3 pg/mL | IL-6 [1]: 421.5 pg/mL | NF-κB [1]: 521.3 pg/mL | TNF-α [1]: 411.3 pg/mL | Leucocyte [2]: 122.15 10^9/L | Lymphocyte [2]: 565.69 10^9/L | Neutrophil [2]: 232.24 10^9/L | Ashcroft scores [2]: 5.45 | Leucocyte [3]: 46.09 10^9/L | Lymphocyte [3]: 50.03 10^9/L | Neutrophil [3]: 40.99 10^9/L | Ashcroft scores [3]: 4.13 | inhibition (anti-inflammatory) effect on leucocytes, neutrophils and lymphocytes in blood [3]: obviously inferior

CC(C)n1cnc2c(=O)[nH]cnc21 [Compound 2]
Ashcroft scores [1]: 1.16 | IL-1β [1]: 32.0 pg/mL | IL-6 [1]: 62.6 pg/mL | NF-κB [1]: 24.6 pg/mL | TNF-α [1]: 51.2 pg/mL | Leucocyte [2]: 6.42 10^9/L | Lymphocyte [2]: 72.69 10^9/L | Neutrophil [2]: 21.93 10^9/L | Ashcroft scores [2]: 1.20 | Leucocyte [3]: 4.16 10^9/L | Lymphocyte [3]: 5.29 10^9/L | Neutrophil [3]: 1.26 10^9/L | Ashcroft scores [3]: 0.88

CCC(=O)Oc1ncnc2c1ncn2C(C)C [Compound 12]
Ashcroft scores [1]: 1.37 | IL-1β [1]: 35.8 pg/mL | IL-6 [1]: 66.5 pg/mL | NF-κB [1]: 27.7 pg/mL | TNF-α [1]: 54.4 pg/mL | Leucocyte [2]: 6.12 10^9/L | Lymphocyte [2]: 74.46 10^9/L | Neutrophil [2]: 21.68 10^9/L | Ashcroft scores [2]: 1.12 | Leucocyte [3]: 4.04 10^9/L | Lymphocyte [3]: 5.65 10^9/L | Neutrophil [3]: 1.23 10^9/L | Ashcroft scores [3]: 1.13
